Experiments:
[1] = target: Serine/threonine-protein kinase SIK3 (Homo sapiens) (UniProt Q9Y2K2); test: % Activity remaining of SIK3 in the Dundee kinase panel at 1.0 µM; conditions: Compound concentration 1.0 uM
[2] = target: RAC-beta serine/threonine-protein kinase (Homo sapiens) (UniProt P31751); test: % Activity remaining of PKB beta in the Dundee kinase panel at 1.0 µM; conditions: Compound concentration 1.0 uM
[3] = target: Tyrosine-protein kinase SYK (Homo sapiens) (UniProt P43405); test: % Activity remaining of SYK in the Dundee kinase panel at 1.0 µM; conditions: Compound concentration 1.0 uM
[4] = target: Serine/threonine-protein kinase Chk1 (Homo sapiens) (UniProt O14757); test: % Activity remaining of CHK1 in the Dundee kinase panel at 1.0 µM; conditions: Compound concentration 1.0 uM
[5] = target: Discoidin domain-containing receptor 2 (Homo sapiens) (UniProt Q16832); test: % Activity remaining of DDR2 in the Dundee kinase panel at 1.0 µM; conditions: Compound concentration 1.0 uM
Chain of Discoidin domain-containing receptor 2 (Homo sapiens) (Q16832 whole entry, the tested form may be a part): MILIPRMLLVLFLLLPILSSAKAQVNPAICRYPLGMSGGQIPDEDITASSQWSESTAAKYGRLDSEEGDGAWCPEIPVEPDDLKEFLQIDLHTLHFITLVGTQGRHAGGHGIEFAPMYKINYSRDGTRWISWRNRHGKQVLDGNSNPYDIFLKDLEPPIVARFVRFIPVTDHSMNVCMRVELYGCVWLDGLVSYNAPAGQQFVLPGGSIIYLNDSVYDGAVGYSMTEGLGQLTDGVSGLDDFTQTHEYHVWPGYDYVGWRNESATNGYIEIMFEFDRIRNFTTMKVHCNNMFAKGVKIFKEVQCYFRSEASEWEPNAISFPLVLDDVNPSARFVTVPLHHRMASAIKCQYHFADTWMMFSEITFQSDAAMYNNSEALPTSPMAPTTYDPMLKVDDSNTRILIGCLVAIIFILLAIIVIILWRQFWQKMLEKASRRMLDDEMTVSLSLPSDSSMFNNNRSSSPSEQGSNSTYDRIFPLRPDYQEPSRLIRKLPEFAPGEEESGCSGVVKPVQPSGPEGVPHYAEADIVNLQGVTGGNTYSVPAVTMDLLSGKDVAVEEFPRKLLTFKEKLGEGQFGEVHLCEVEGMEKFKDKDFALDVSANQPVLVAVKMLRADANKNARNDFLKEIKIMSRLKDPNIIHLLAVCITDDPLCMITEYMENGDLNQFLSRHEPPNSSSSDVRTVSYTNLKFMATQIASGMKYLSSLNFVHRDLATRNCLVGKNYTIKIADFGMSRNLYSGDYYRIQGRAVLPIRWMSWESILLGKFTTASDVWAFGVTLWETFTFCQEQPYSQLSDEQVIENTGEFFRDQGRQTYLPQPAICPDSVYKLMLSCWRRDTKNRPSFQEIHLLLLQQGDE

[6] = target: Serine/threonine-protein kinase N2 (Homo sapiens) (UniProt Q16513); test: % Activity remaining of PRK2 in the Dundee kinase panel at 1.0 µM; conditions: Compound concentration 1.0 uM
[7] = target: Mitogen-activated protein kinase kinase kinase kinase 2 (Homo sapiens) (UniProt Q12851); test: % Activity remaining of GCK in the Dundee kinase panel at 1.0 µM; conditions: Compound concentration 1.0 uM
Chain of Mitogen-activated protein kinase kinase kinase kinase 2 (Homo sapiens) (Q12851 whole entry, looked up): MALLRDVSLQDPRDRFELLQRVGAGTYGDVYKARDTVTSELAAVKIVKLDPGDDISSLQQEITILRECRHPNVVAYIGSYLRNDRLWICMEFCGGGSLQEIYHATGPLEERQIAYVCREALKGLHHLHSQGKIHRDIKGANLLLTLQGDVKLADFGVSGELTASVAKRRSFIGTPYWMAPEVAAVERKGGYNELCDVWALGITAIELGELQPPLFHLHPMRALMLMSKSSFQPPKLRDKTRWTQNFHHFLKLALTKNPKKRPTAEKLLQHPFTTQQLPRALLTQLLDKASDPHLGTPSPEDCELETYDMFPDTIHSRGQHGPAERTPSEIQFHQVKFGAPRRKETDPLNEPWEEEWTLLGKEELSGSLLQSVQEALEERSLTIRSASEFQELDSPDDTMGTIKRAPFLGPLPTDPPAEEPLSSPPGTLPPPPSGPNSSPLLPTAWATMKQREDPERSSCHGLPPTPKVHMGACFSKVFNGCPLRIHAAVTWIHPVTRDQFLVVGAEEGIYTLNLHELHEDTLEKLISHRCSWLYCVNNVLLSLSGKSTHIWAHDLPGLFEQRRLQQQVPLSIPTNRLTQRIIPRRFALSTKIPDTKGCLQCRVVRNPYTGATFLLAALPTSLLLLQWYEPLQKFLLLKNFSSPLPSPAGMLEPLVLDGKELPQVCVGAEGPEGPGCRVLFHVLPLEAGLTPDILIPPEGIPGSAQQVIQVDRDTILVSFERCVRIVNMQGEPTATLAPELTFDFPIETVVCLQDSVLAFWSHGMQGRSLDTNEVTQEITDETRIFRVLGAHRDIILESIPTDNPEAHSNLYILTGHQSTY

[8] = target: Serine/threonine-protein kinase Nek2 (Homo sapiens) (UniProt P51955); test: % Activity remaining of NEK2a in the Dundee kinase panel at 1.0 µM; conditions: Compound concentration 1.0 uM
[9] = target: Mitogen-activated protein kinase kinase kinase kinase 5 (Homo sapiens) (UniProt Q9Y4K4); test: % Activity remaining of MAP4K5 in the Dundee kinase panel at 1.0 µM; conditions: Compound concentration 1.0 uM
[10] = target: Dual specificity mitogen-activated protein kinase kinase 2 (Homo sapiens) (UniProt P36507); test: % Activity remaining of MKK2 in the Dundee kinase panel at 1.0 µM; conditions: Compound concentration 1.0 uM
[11] = target: Mitogen-activated protein kinase 13 (Homo sapiens) (UniProt O15264); test: % Activity remaining of p38 delta MAPK in the Dundee kinase panel at 1.0 µM; conditions: Compound concentration 1.0 uM
[12] = target: Dual specificity mitogen-activated protein kinase kinase 6 (Homo sapiens) (UniProt P52564); test: % Activity remaining of MKK6 in the Dundee kinase panel at 1.0 µM; conditions: Compound concentration 1.0 uM
[13] = target: Protein kinase C zeta type (Homo sapiens) (UniProt Q05513); test: % Activity remaining of PKC zeta in the Dundee kinase panel at 1.0 µM; conditions: Compound concentration 1.0 uM
Chain of Protein kinase C zeta type (Homo sapiens) (Q05513 whole entry): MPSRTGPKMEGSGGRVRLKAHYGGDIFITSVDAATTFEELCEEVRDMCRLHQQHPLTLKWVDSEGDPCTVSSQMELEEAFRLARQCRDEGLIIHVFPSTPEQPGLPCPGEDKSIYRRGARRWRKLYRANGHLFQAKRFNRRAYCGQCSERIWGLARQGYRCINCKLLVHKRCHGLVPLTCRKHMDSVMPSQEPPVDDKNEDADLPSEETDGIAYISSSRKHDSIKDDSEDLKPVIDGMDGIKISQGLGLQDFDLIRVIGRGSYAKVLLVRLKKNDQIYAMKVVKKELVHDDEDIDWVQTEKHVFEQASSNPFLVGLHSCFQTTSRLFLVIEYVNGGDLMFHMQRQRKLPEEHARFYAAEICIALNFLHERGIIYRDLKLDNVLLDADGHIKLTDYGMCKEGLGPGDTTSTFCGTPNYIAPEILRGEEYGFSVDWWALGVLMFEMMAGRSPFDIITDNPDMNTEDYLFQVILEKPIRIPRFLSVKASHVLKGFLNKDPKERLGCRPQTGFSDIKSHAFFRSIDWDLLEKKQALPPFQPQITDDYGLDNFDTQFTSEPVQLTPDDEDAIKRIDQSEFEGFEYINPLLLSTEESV

[14] = target: Insulin receptor (Homo sapiens) (UniProt P06213); test: % Activity remaining of IR in the Dundee kinase panel at 1.0 µM; conditions: Compound concentration 1.0 uM
[15] = target: Serine/threonine-protein kinase ULK2 (Homo sapiens) (UniProt Q8IYT8); test: % Activity remaining of ULK2 in the Dundee kinase panel at 1.0 µM; conditions: Compound concentration 1.0 uM
[16] = target: Tyrosine-protein kinase ABL1 (Homo sapiens) (UniProt P00519); test: % Activity remaining of ABL in the Dundee kinase panel at 1.0 µM; conditions: Compound concentration 1.0 uM
[17] = target: MAP kinase-activated protein kinase 3 (Homo sapiens) (UniProt Q16644); test: % Activity remaining of MAPKAP-K3 in the Dundee kinase panel at 1.0 µM; conditions: Compound concentration 1.0 uM
[18] = target: Dual specificity testis-specific protein kinase 1 (Homo sapiens) (UniProt Q15569); test: % Activity remaining of TESK1 in the Dundee kinase panel at 1.0 µM; conditions: Compound concentration 1.0 uM
[19] = target: Ribosomal protein S6 kinase beta-1 (Homo sapiens, UniProt P23443); test: RPS6KB1 degradation assay; type: functional
[20] = target: Mitogen-activated protein kinase 7 (Homo sapiens) (UniProt Q13164); test: % Activity remaining of ERK5 in the Dundee kinase panel at 1.0 µM; conditions: Compound concentration 1.0 uM
Chain of Mitogen-activated protein kinase 7 (Homo sapiens) (Q13164 2-816 limits assumed): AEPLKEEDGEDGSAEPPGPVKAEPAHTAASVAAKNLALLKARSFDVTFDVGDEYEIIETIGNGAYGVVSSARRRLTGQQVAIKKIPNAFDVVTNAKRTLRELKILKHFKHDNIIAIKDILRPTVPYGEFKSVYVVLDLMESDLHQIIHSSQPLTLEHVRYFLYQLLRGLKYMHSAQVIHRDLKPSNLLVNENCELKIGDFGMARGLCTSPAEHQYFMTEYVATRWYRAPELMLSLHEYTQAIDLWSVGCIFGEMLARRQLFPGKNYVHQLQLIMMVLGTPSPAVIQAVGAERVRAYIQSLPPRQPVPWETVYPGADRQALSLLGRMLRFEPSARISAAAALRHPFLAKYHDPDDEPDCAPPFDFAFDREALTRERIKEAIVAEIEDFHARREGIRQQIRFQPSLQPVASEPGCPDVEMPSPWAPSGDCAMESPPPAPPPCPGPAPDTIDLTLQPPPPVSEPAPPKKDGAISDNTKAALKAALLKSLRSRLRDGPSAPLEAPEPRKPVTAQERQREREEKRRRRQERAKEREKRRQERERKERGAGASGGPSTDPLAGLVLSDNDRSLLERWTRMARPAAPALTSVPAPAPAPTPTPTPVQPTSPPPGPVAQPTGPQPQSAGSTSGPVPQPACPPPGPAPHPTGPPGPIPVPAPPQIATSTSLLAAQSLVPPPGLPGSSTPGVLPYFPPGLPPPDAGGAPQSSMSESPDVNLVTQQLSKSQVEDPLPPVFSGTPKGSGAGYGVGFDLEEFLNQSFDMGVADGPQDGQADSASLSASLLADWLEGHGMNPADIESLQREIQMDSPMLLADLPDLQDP

[21] = target: T1, Serine/threonine-protein kinase Sgk1 (Homo sapiens) (UniProt O00141); test: SGK1 degradation assay; type: functional
T1 sequence (whole entry): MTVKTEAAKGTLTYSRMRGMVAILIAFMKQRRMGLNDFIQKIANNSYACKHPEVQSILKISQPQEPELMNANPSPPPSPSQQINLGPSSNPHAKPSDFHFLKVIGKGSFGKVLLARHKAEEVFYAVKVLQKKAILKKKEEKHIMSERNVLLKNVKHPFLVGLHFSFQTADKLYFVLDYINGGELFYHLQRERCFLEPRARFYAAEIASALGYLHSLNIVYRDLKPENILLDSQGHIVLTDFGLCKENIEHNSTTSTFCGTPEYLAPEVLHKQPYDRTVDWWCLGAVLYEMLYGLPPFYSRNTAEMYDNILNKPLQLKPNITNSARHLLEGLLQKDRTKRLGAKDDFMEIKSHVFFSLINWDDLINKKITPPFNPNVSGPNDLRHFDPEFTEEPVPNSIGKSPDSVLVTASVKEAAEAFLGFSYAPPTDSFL

[22] = target: Mitogen-activated protein kinase kinase kinase 5 (Homo sapiens) (UniProt Q99683); test: % Activity remaining of ASK1 in the Dundee kinase panel at 1.0 µM; conditions: Compound concentration 1.0 uM
[23] = target: 5'-AMP-activated protein kinase catalytic subunit alpha-1 (Homo sapiens) (UniProt Q13131); test: % Activity remaining of AMPK (hum) in the Dundee kinase panel at 1.0 µM; conditions: Compound concentration 1.0 uM
[24] = target: Vascular endothelial growth factor receptor 1 (Homo sapiens) (UniProt P17948); test: % Activity remaining of VEGFR1 in the Dundee kinase panel at 1.0 µM; conditions: Compound concentration 1.0 uM
Chain of Vascular endothelial growth factor receptor 1 (Homo sapiens) (P17948 whole entry): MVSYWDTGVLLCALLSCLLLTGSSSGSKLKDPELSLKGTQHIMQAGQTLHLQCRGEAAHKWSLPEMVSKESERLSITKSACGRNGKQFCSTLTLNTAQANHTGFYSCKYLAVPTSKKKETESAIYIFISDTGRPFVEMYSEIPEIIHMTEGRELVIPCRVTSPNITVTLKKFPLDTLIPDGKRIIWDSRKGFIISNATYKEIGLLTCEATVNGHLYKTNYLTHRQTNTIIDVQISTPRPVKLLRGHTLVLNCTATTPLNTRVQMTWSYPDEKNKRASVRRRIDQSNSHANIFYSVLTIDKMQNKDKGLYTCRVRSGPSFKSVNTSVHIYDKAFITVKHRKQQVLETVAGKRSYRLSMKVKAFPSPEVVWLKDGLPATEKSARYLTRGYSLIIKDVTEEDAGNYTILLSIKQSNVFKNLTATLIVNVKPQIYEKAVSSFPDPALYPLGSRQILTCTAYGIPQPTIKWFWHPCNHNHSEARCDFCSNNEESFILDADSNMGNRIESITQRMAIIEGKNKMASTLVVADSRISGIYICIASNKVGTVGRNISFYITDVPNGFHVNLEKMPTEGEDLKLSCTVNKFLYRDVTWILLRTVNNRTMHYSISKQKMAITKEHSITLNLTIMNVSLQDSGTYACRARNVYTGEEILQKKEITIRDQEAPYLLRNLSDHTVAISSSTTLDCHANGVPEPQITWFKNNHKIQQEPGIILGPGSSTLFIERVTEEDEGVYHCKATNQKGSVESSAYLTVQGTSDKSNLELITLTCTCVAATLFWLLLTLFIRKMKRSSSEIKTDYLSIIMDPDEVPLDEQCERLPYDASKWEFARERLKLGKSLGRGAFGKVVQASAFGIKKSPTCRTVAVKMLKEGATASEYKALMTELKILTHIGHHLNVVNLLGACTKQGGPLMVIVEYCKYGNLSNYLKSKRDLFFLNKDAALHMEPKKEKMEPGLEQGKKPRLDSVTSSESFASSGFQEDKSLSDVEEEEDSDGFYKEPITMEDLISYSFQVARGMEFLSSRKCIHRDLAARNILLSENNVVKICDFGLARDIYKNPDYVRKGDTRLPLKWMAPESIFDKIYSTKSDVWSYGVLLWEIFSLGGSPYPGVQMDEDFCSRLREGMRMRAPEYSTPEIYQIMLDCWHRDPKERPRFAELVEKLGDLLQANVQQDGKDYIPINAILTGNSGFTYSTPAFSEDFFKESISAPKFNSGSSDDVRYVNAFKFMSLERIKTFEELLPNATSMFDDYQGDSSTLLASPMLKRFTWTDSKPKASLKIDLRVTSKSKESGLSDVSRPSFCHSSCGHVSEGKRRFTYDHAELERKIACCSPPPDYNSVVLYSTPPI

[25] = target: Protein-tyrosine kinase 6 (Homo sapiens) (UniProt Q13882); test: % Activity remaining of BRK in the Dundee kinase panel at 1.0 µM; conditions: Compound concentration 1.0 uM
[26] = target: Death-associated protein kinase 1 (Homo sapiens) (UniProt P53355); test: % Activity remaining of DAPK1 in the Dundee kinase panel at 1.0 µM; conditions: Compound concentration 1.0 uM
[27] = target: Serine/threonine-protein kinase 16 (Homo sapiens) (UniProt O75716); test: % Activity remaining of MPSK1 in the Dundee kinase panel at 1.0 µM; conditions: Compound concentration 1.0 uM
[28] = target: Ribosomal protein S6 kinase alpha-3 (Homo sapiens) (UniProt P51812); test: % Activity remaining of RSK2 in the Dundee kinase panel at 1.0 µM; conditions: Compound concentration 1.0 uM
[29] = target: Serine/threonine-protein kinase MARK1 (Homo sapiens) (UniProt Q9P0L2); test: % Activity remaining of MARK1 in the Dundee kinase panel at 1.0 µM; conditions: Compound concentration 1.0 uM
[30] = target: Glycogen synthase kinase-3 beta (Homo sapiens) (UniProt P49841); test: % Activity remaining of GSK3 beta in the Dundee kinase panel at 1.0 µM; conditions: Compound concentration 1.0 uM
Chain of Glycogen synthase kinase-3 beta (Homo sapiens) (P49841 whole entry, looked up): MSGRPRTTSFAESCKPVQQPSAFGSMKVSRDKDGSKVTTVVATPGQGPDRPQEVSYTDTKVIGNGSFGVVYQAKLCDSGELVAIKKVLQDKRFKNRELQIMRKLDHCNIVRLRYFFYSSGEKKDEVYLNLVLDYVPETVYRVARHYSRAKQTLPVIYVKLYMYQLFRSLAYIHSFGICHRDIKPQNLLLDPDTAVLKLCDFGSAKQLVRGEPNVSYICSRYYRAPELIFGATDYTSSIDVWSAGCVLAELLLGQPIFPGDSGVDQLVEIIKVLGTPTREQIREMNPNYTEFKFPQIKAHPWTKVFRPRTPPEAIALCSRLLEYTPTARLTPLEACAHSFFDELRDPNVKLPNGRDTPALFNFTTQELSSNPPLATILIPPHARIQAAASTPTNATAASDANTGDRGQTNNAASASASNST

[31] = target: Tyrosine-protein kinase ZAP-70 (Homo sapiens) (UniProt P43403); test: % Activity remaining of ZAP70 in the Dundee kinase panel at 1.0 µM; conditions: Compound concentration 1.0 uM
[32] = target: Eukaryotic elongation factor 2 kinase (Homo sapiens) (UniProt O00418); test: % Activity remaining of EF2K in the Dundee kinase panel at 1.0 µM; conditions: Compound concentration 1.0 uM
[33] = target: Serine/threonine-protein kinase Chk2 (Homo sapiens) (UniProt O96017); test: % Activity remaining of CHK2 in the Dundee kinase panel at 1.0 µM; conditions: Compound concentration 1.0 uM

Cc1ccc(F)c(S(=O)(=O)Nc2ccc(-c3nc(OC[C@H]4CN(CCCCCCOCCOCCOCC(=O)N[C@H](C(=O)N5C[C@H](O)C[C@H]5C(=O)NCc5ccc(-c6scnc6C)cc5)C(C)(C)C)CCO4)c4cn[nH]c4n3)cc2)c1
inactive: % Activity remaining [1] 78.7% | % Activity remaining [2] 98.7% | % Activity remaining [3] 116% | % Activity remaining [4] 111% | % Activity remaining [5] 114% | % Activity remaining [6] 105% | % Activity remaining [7] 99% | % Activity remaining [8] 162% | % Activity remaining [9] 98.6% | % Activity remaining [10] 114% | % Activity remaining [11] 103% | % Activity remaining [12] 123% | % Activity remaining [13] 96.5% | % Activity remaining [14] 103% | % Activity remaining [15] 103% | % Activity remaining [16] 111% | % Activity remaining [17] 79% | % Activity remaining [18] 122% | Degradation [19] 0% | % Activity remaining [20] 102% | Degradation [21] 0% | % Activity remaining [22] 113% | % Activity remaining [23] 105% | % Activity remaining [24] 120% | % Activity remaining [25] 86.8% | % Activity remaining [26] 100% | % Activity remaining [27] 127% | % Activity remaining [28] 120% | % Activity remaining [29] 99.4% | % Activity remaining [30] 108% | % Activity remaining [31] 75% | % Activity remaining [32] 97.5% | % Activity remaining [33] 84.8%

Cc1ccc(F)c(S(=O)(=O)Nc2ccc(-c3nc(OC[C@H]4CN(CCCCCCOCCOCCOCC(=O)N[C@H](C(=O)N5C[C@@H](O)C[C@H]5C(=O)NCc5ccc(-c6scnc6C)cc5)C(C)(C)C)CCO4)c4cn[nH]c4n3)cc2)c1
inactive: % Activity remaining [1] 117% | % Activity remaining [2] 101% | % Activity remaining [3] 103% | % Activity remaining [4] 126% | % Activity remaining [5] 134% | % Activity remaining [6] 101% | % Activity remaining [7] 96.3% | % Activity remaining [8] 139% | % Activity remaining [9] 101% | % Activity remaining [10] 124% | % Activity remaining [11] 121% | % Activity remaining [12] 108% | % Activity remaining [13] 110% | % Activity remaining [14] 93.9% | % Activity remaining [15] 117% | % Activity remaining [16] 112% | % Activity remaining [17] 77% | % Activity remaining [18] 120% | % Activity remaining [20] 108% | % Activity remaining [22] 102% | % Activity remaining [23] 108% | % Activity remaining [24] 103% | % Activity remaining [25] 105% | % Activity remaining [26] 108% | % Activity remaining [27] 139% | % Activity remaining [28] 109% | % Activity remaining [29] 93% | % Activity remaining [30] 106% | % Activity remaining [31] 74.7% | % Activity remaining [32] 105% | % Activity remaining [33] 99.1%

Reference: ChEMBL document CHEMBL5463727, “Data for DCP probe SGK3-PROTAC1” (2023)
